Results as given in the PolyMetriX glass transition set.
± gives the standard deviation of the reports.

SMILES	glass transition temperature [°C]
*Oc1ccc(OC(=O)CCCCCCCCC(*)=O)cc1 (repeat unit)	52.80
*O[Si](*)(c1ccccc1)c1ccc(OC(C)(C)C)cc1 (repeat unit)	56.00
*CC(*)C(=O)OCC(F)(F)F (repeat unit)	3.10
*Oc1c(Br)cc(C(c2cc(Br)c(OC(*)=O)c(Br)c2)(C(F)(F)F)C(F)(F)F)cc1Br (repeat unit)	206.00
*CC(C)(C)C1C(=O)OC(=O)C1* (repeat unit)	141.00
*Oc1ccc(S(=O)(=O)c2ccc(Oc3ccc4c(=O)n5c6cc(-c7ccc8c(c7)nc7c9ccc(*)c%10cccc(c(=O)n87)c%109)ccc6nc5c5cccc3c45)cc2)cc1 (repeat unit)	415.00
*CC(*)c1ccc(C(O)C(F)(F)F)cc1 (repeat unit)	110.00
*c1ccc2c(c1)C(=O)N(c1cc(N3C(=O)c4ccc(C(*)(C(F)(F)F)C(F)(F)F)cc4C3=O)ccc1C)C2=O (repeat unit)	335.00
*CCCCCCNC(=O)CCCCCCC(=O)N* (repeat unit)	57.00
*Oc1ccc2ccc(Oc3ccc(C(=O)Nc4ccc(Oc5ccc(C(C)(C)c6ccc(Oc7ccc(NC(=O)c8ccc(*)cc8)cc7)cc6)cc5)cc4)cc3)cc2c1 (repeat unit)	143.00
*CC(*)C(=O)OCC(CC)CCCC (repeat unit) [Poly(2-ethylhexyl acrylate)]	-57.08 ± 7
*Nc1ccc(*)cc1OCCCCCCCCCCOc1ccc(C2CCC(CCCCC)CC2)cc1 (repeat unit)	64.50
*CCCCCCOC(=O)C(CCCCP(=O)(O)O)C(=O)OCCCCCCOc1ccc(-n2on2-c2ccc(O*)cc2)cc1 (repeat unit)	19.00
*c1ccc(Oc2ccc(-c3nc(-c4cccc(-c5nnc(-c6ccccc6)c(*)n5)n4)nnc3-c3ccccc3)cc2)cc1 (repeat unit)	219.00
*C(=O)c1ccc2c(c1)C(=O)N(c1ccc(-c3ccc(N4C(=O)c5ccc(*)cc5C4=O)cc3C)c(C)c1)C2=O (repeat unit)	385.00
*Nc1cccc(NC(=O)c2cc(NC(=O)c3ccncc3)cc(C(*)=O)c2)c1 (repeat unit)	321.00
*N=P(N=P(N=S(*)(=O)NC)(NC)NC)(NC)NC (repeat unit)	22.00
*CCCCCOC(=O)c1ccc(-c2ccc(-c3ccc(C(=O)O*)cc3)cc2)cc1 (repeat unit)	40.00
*Oc1ccc(S(=O)(=O)c2ccc(OC(=O)c3ccc([Si](c4ccccc4)(c4ccccc4)c4ccc(C(*)=O)cc4)cc3)cc2)cc1 (repeat unit)	250.00
*CC(O)CN(*)c1cc(C)cc(C)c1 (repeat unit)	80.00
*CCCCCCCCCCCCOc1ccc(CCc2ccc(O*)cc2C)cc1 (repeat unit)	0.00
*CC(O)COc1ccc(C(C)(C)c2ccc(OCC(O)COc3ccccc3C(=O)Nc3ccc(O*)cc3)cc2)cc1 (repeat unit)	121.00
*OP(=O)(Oc1ccc([N+](=O)[O-])cc1)Oc1c(Br)cc(C(c2cc(Br)c(*)c(Br)c2)(C(F)(F)F)C(F)(F)F)cc1Br (repeat unit)	154.00

SMILES	glass transition temperature [°C]
*/C=C/c1ccc(N(C)CCOC(=O)Nc2ccc(C)c(NC(=O)OCCN(C)c3ccc(/C=C/C4=CC(=C(C#N)C#N)C=C(*)O4)s3)c2)s1 (repeat unit)	183.00
*c1ccc(OC(=O)c2ccc(C(=O)Oc3ccc(C4(*)NC(=O)c5ccccc54)cc3)cc2)cc1 (repeat unit)	327.00
*CCCCNC(=O)C(OC)C(OC)C(=O)N* (repeat unit)	100.00
*C(=O)c1ccc(N(*)CCCCC)cc1 (repeat unit)	83.50
*CCCCCCN(C)C(=O)CCCC(=O)N(*)C (repeat unit)	3.00
*CCCN1C(=O)C2C3C=CC(C4C(=O)N(*)C(=O)C34)C2C1=O (repeat unit)	210.00
*c1ccc(Oc2ccc(C3(c4ccc(Oc5ccc(N6C(=O)c7ccc(Oc8ccc(C9(c%10ccc(Oc%11ccc%12c(c%11)C(=O)N(*)C%12=O)cc%10)CCC(c%10ccccc%10)CC9)cc8)cc7C6=O)cc5)cc4)CCC(C(C)(C)C)CC3)cc2)cc1 (repeat unit)	243.00
*c1ccc2c(c1)C(CC(CC)CCCC)(CC(CC)CCCC)c1cc(*)ccc1-2 (repeat unit)	44.00 ± 21
*C(=O)c1ccc2c(c1)/C(=N\c1ccc(Oc3cccc(/N=C4/OC(=O)c5ccc(*)cc54)c3)cc1)OC2=O (repeat unit)	253.00
*c1ccc(-c2ccc(-c3ccc(-c4ccc(-c5cc(-c6ccccc6)c6cc(-c7ccc8nc(*)cc(-c9ccccc9)c8c7)ccc6n5)cc4)cc3)cc2)cc1 (repeat unit)	355.00
*c1cc(C(c2ccc(OCCN(C)c3ccc(/C=C/C4=CC(=C(C#N)C#N)CC(C)(C)C4)cc3)c(N3C(=O)c4ccc(Oc5ccc6c(c5)C(=O)N(*)C6=O)cc4C3=O)c2)(C(F)(F)F)C(F)(F)F)ccc1OCCN(C)c1ccc(/C=C/C2=CC(=C(C#N)C#N)CC(C)(C)C2)cc1 (repeat unit)	215.00
*CCCCCC(=O)Oc1ccc(C(C)(C)c2ccc(C(C)(C)c3ccc(OC(=O)c4ccc5c(c4)C(=O)N(*)C5=O)cc3)cc2)cc1 (repeat unit)	104.00
*Oc1ccc(C(C)(C)c2ccc(OC(*)=O)c(CC)c2)cc1CC (repeat unit)	65.00
*c1ccc(-c2cnc3cc(S(=O)(=O)c4ccc5nc(*)cnc5c4)ccc3n2)cc1 (repeat unit)	342.00
*CCCC(=O)Nc1ccc(Oc2cccc(NC(=O)CCCN3C(=O)c4ccc(C(=O)c5ccc6c(c5)C(=O)N(*)C6=O)cc4C3=O)c2)cc1 (repeat unit)	188.00
*CCC1C(=O)N(CCC)C(=O)C1* (repeat unit)	90.40
*CC(CC)(CCl)CO* (repeat unit)	20.00
*CCCCCCOC(=O)C(CCCCCP(=O)(OCC)OCC)C(=O)OCCCCCCOc1ccc(-n2on2-c2ccc(O*)cc2)cc1 (repeat unit)	7.00
*CCCCCCCCCCOc1ccc(CCc2ccc(O*)cc2C)cc1 (repeat unit)	-3.00
*CCC(C)C(C)CCNC(=O)c1cc(C(=O)N*)cc(C(C)(C)C)c1 (repeat unit)	173.00
*CC(*)c1cc(C(=O)OCCCCCCCCCCCC)ccc1-c1ccc(OCCCCCCCC)cc1 (repeat unit)	42.00
*Nc1ccc(NC(=O)CCCC(*)=O)cc1 (repeat unit)	135.00
*CCCN(*)C(=O)C(F)(F)C(F)(F)C(F)(F)C(F)(F)C(F)(F)C(F)(F)C(F)(F)F (repeat unit)	25.00

SMILES	glass transition temperature [°C]
*CC(*)c1ccccc1C(=O)OCCCC (repeat unit)	66.00
*CCc1cc(C)c(*)cc1C (repeat unit)	100.00
*CC(*)(F)C(=O)OCCC(F)(F)C(F)(F)C(F)(F)C(F)(F)F (repeat unit)	6.00
*Oc1ccc(NC(=O)c2ccc(S(=O)(=O)c3ccc(C(=O)Nc4ccc(Oc5ccc(C6(c7ccc(*)cc7)C7CC8CC(C7)CC6C8)cc5)cc4)cc3)cc2)cc1 (repeat unit)	252.00
*CC(=O)NCCCCCCNC(=O)COC(=O)CCCCCCCCCCC(=O)O* (repeat unit)	0.90
*C(F)(F)C(*)(F)C(F)(F)F (repeat unit)	158.50
*c1ccc(-c2ccc(N(*)c3ccc(CCCC)cc3)cc2)cc1 (repeat unit)	180.00
*c1ccc(Oc2ccc(Oc3ccc(N4C(=O)c5ccc(-c6ccc7c(c6)C(=O)N(*)C7=O)cc5C4=O)cc3)c(C(C)(C)C)c2)cc1 (repeat unit)	274.00
*O[Si](C)(C=C)O[Si](C)(C)c1ccc([Si](*)(C)C)cc1 (repeat unit)	-63.00
*c1cc(-n2c(=O)c3cc4c(=O)n(*)c(=O)c4cc3c2=O)c(O)cc1O (repeat unit)	362.00
*CC1(*)OCC(c2ccccc2)O1 (repeat unit)	75.00
*c1ccc(Oc2ccc(N3C(=O)c4ccc(Oc5ccc(C6(c7ccc(Oc8ccc9c(c8)C(=O)N(*)C9=O)cc7)CCCCCCCCCCC6)cc5)cc4C3=O)cc2)cc1 (repeat unit)	230.00
*Oc1ccc(S(=O)(=O)c2ccc(Oc3ccc(C4CCCC(C(C)c5ccc(*)cc5)C4)cc3)cc2)cc1 (repeat unit)	230.00
*C(=O)Nc1ccccc1NC(=O)c1ccc(N2C(=O)c3ccc(*)cc3C2=O)cc1 (repeat unit)	215.00
*Oc1ccc(OC2(F)C(*)(F)C(F)(F)C2(F)F)cc1 (repeat unit)	41.00
*c1ccc(Oc2ccc(-c3nc4ccc(-c5ccc6nc(*)c(-c7ccccc7)c(-c7ccccc7)c6c5)cc4c(-c4ccccc4)c3-c3ccccc3)cc2)cc1 (repeat unit)	300.00
*CC(*)(C)c1ccccc1 (repeat unit) [poly(alpha-methylstyrene)]	168.00 ± 140
*CC(*)(C)C(=O)OCCC1CCCCC1 (repeat unit)	110.00
*Oc1ccc(C(C)(C)c2ccc(OC(=O)Nc3cccc(P(=O)(c4ccccc4)c4cccc(NC(*)=O)c4)c3)cc2)cc1 (repeat unit)	62.00
*c1c(C)cc(Cc2cc(C)c(N3C(=O)c4cccc(Oc5c(C)cc(-c6cc(C)c(Oc7cccc8c7C(=O)N(*)C8=O)c(C)c6)cc5C)c4C3=O)c(C)c2)cc1C (repeat unit)	289.00
*CC(*)CC[Si](C)(C)C (repeat unit)	132.00
*c1ccc(-c2nc3cc4sc(*)nc4cc3s2)cc1 (repeat unit)	25.00
